{"source": "patent US8703900B2", "about": "(BioAmber Inc., priority 2010, dated 2014)", "origin": "cited, not measured here", "settings": "first acid group", "data": [{"smiles": "O=C(O)CCCCC(=O)O", "note": "[AA, adipic acid]", "values": [{"measurement": "pKa1", "result": 4.43}]}]}
